Laboratory results as given in US8158621B2, “Methods of treating or preventing autoimmune diseases with 2,4-pyrimidinediamine compounds” (Rigel Pharmaceuticals, Inc., priority 2002, dated 2012).

tested on: Human Jurkat T-cells (clone N); assay: Jurkat T-cell activation (anti-TCR, CD69 upregulation); type: cell-based; conditions: not given
Description: The screening process took place over three days.
On the first day of the screen, cultured cells were spun down on a centrifuge (1000 rpm, 5 minutes) and resuspended at 3.0×10^5 cells/ml in RPMI+5% FBS. On the second day of the screen, cells were spun down at 1000 rpm for 5 minutes and resuspended in RPMI+5% FBS at 1.3×10^5 cells/ml. 85 μl of this cell suspension were added to the wells of U-bottom 96 well plates (Corning) 85 μl of compound or diluted RPMI+5% FBS (as a control) only was added to each well and incubated at 37° C. for 1 hour. The cells were then stimulated with anti-TCR (C305) at: 500 ng/ml by adding a 8× solution in 25 μl to the plated cells. The cells were then incubated at 37° C. for 20 hrs.
On the third day of the screen, the plates were spun at 2500 RPM for 1 minute on a Beckman GS-6R centrifuge, and the medium was then removed. 50 μl staining solution (1:100 dilution of anti-CD69-APC antibody (Becton Dickenson) in PBS+2% FBS) was then added to each well, followed by incubation of the plates 4 degrees for 20 minutes in the dark. 150 μl of wash buffer (PBS+2% FBS) was then added to each well, and the plates were spun at 3000 RPM for 1 minute. The supernatant was again removed, and the pellet was resuspended by vortexing gently. 75 μl of PBS+2% FBS +Cytofix (1:4 dilution) was then added, the plates gently vortexed and wrap in aluminum foil. Cells from the plates were read using a flow cytometer coupled to an automated liquid handling system.
Varied concentrations of compound were compared to solvent only to determine the inhibition of T-cell activation IC50 of each compound.

| IC50 [µM] | SMILES |
| --- | --- |
| 17.4 | CCOC(=O)COc1cccc(Nc2ncc(F)c(Nc3cc(C)c(O)c(C)c3)n2)c1 [Compound R940253] |
| 1.41 | Cc1cc(Nc2ncc(F)c(Nc3ccc4cn[nH]c4c3)n2)cc(Cl)c1O [Compound R935264] |
| 13.9 | Nc1ccc(Nc2ncc(F)c(Nc3ccc(N)cc3)n2)cc1 [Compound R950122] |
| 3.54 | COC(=O)Cn1ncc2cc(Nc3ncc(F)c(Nc4ccc(OC(C)C)cc4)n3)ccc21 [Compound R935222] |
| 1.1 | CNC(=O)C(C)(Oc1cccc(Nc2ncc(F)c(Nc3ccc(OC(C)C)cc3)n2)c1)C(=O)NC [Compound R935196] |
| 4.12 | CNC(=O)COc1ccc(Nc2ncc(F)c(Nc3cccc(O)c3)n2)cc1 [Compound R945170] |
| 1.55 | CNC(=O)COc1cccc(Nc2ncc(F)c(Nc3ccc4c(c3)C(OC(C)=O)CCO4)n2)c1 (centres unmarked) [Compound R950382] |
| 1.1 | CNC(=O)COc1cccc(Nc2ncc(F)c(Nc3cccc(C(C)=O)c3)n2)c1 [Compound R950371] |
| 1.73 | CNC(=O)Cn1ncc2cc(Nc3ncc(F)c(Nc4ccc(OC(C)C)cc4)n3)ccc21 [Compound R935239] |
| 2.67 | COC(=O)COc1ccc(Nc2ncc(F)c(Nc3ccc(OCC#N)cc3)n2)cc1 [Compound R945053] |

The remaining lines, values behind:

| SMILES | IC50 [µM] |
| --- | --- |
| CCOC(=O)c1cnc(N[C@H](C(=O)OCC)C(C)C)nc1N[C@H](C(=O)OCC)C(C)C [Compound R926527] | 21.2 |
| CC(C)NC(=O)COc1cccc(Nc2ncc(F)c(Nc3ccc4c(c3)OCCO4)n2)c1 [Compound R926830] | 4.16 |
| CC(O)CNC(=O)COc1cccc(Nc2ncc(F)c(Nc3ccc4c(c3)NCCO4)n2)c1 (centres unmarked) [Compound R909251] | 0.664 |
| Cc1cc(Nc2ncc(F)c(Nc3ccc(O)c(C)c3)n2)ccc1O [Compound R926469] | > 10 |
| O=C(O)COc1ccc(Nc2ncc(F)c(Nc3cccc(O)c3)n2)cc1 [Compound R926564] | > 10 |
| CNC(=O)COc1cccc(Nc2nc(Nc3ccc4c(c3)OCCO4)ncc2F)c1 [Compound R926776] | 12.5 |

same assay, conditions: Homo sapiens, Jurkat

| IC50 [µM] | SMILES |
| --- | --- |
| > 10 | CC(Nc1nc(Nc2cccc(O)c2)ncc1Br)c1ccc(F)cc1 (racemic) [Compound R935023] |
| > 10 | O=C(O)c1cccc(Nc2ncc(F)c(Nc3cccc(C(=O)O)c3)n2)c1 [Compound R945036] |
| 4.24 | COc1ccc(Nc2nc(Nc3cccc(O)c3)ncc2F)cc1Cl [Compound R926945] |
| > 10 | N#Cc1ccc(Nc2ncc(F)c(Nc3ccc(C#N)cc3)n2)cc1 [Compound R945057] |
| 43.2 | COC(=O)c1cc(Nc2ncc(F)c(Nc3ccc(OC)c(C(=O)OC)c3)n2)ccc1OC [Compound R945066] |

More lines, now with the values behind:

| SMILES | IC50 [µM] |
| --- | --- |
| Oc1cccc(Nc2ncc(F)c(Nc3ccc4[nH]ccc4c3)n2)c1 [Compound R926932] | 2.91 |
| Oc1cccc(Nc2ncc(C(F)(F)F)c(Nc3cccc(O)c3)n2)c1 [Compound R925863] | 2.96 |
| COc1ccc(CNc2ncc(F)c(Nc3ccc4c(c3)OCCO4)n2)cc1 [Compound R926230] | > 10 |
| Cc1cnc(Nc2ccccc2-c2ccccc2)nc1Nc1ccccc1-c1ccccc1 [Compound R926404] | > 10 |
| Oc1cccc(Nc2nc(Cl)c(Cl)c(Nc3cccc(O)c3)n2)c1 [Compound R926591] | > 10 |
| Oc1cccc(Nc2ncc(F)c(NCCSCc3c(F)cccc3Cl)n2)c1 [Compound R926724] | > 10 |
| OB(O)c1cccc(Nc2nc(Nc3cccc(O)c3)ncc2F)c1 [Compound R926755] | 7.36 |
| COc1cc(-c2ccccc2)c(C)cc1Nc1ccnc(Nc2cc(C)c(-c3ccccc3)cc2OC)n1 [Compound R925808] | > 10 |
| Oc1ccc(Nc2ncc(F)c(Nc3ccc(O)c(Cl)c3)n2)cc1Cl [Compound R926675] | 2.37 |
| O=S(=O)(c1ccc(Nc2ncc(F)c(Nc3ccc4c(c3)OCCO4)n2)cc1)N1CCCC1 [Compound R926716] | 3.62 |
| Oc1cccc(Nc2nc(Nc3cccc(-c4nnn[nH]4)c3)ncc2F)c1 [Compound R926842] | > 10 |
